Laboratory results as given in patent US4940715A, “5H-pyrazolo[4,3-A] quinolizin-5-one compounds exhibiting therapeutic activities” (Kissei Pharmaceutical Co., Ltd., priority 1988, dated 1990).

Key:
[1] = tested on: IgG secreted into culture supernatant by BALB/c mouse spleen cells; assay: Determination of IgG produced in in vitro culture of spleen cells (adoptive secondary immune response against DNP-As), ELISA; format: cell-based; conditions: 96 h, spleen cells 5×10^6 cells/ml, 4 days, 37° C.; for inhibition at 10 µg/mL: 10 μg/ml
Procedure: (§1) The antiallergic activities of the 5H-pyrazolo[4,3-a]quinolizin-5-one compounds of formula (I) are also confirmed by inhibition of the rat homologous passive cutaneous anaphylaxis (hereinafter referred to as PCA) reaction.
(§2) Determination of Igs produced in in vitro culture
(§3) BALB/c mice were immunized intraperitoneally with 5 μg of DNP-As adsorbed on 4 mg aluminum hydroxide gel. Four weeks after the immunization, the spleens were excised from the mice and 5×10^7 spleen cells were transferred intravenously into the recipient mice which had been exposed to 600 rad of X-ray irradiation. Immediately after the cell transfer, the recipients were then immunized intraperitoneally with 5 μg of DNP-As adsorbed on 4 mg aluminum hydroxide gel to induce adoptive secondary immune response. Further 4 weeks after the immunization of recipients, the spleens were excised from them and the spleen cell suspensions containing 5×10^6 cells/ml were cultured with or without a compound to be tested in 96-well micro-titer plates at 37° C. for 4 days. IgE and IgG secreted into the culture supernatant was each determined correspondingly by enzyme-linked immunosolvent assay and the inhibitory effect was calculated according to the following equation. [formula]

[2] = tested on: IgE secreted into culture supernatant by BALB/c mouse spleen cells; assay: Determination of IgE produced in in vitro culture of spleen cells (adoptive secondary immune response against DNP-As), ELISA; format: cell-based; conditions: 96 h, spleen cells 5×10^6 cells/ml, 4 days, 37° C.; for inhibition at 10 µg/mL: 10 μg/ml
Procedure: as §1, §2, §3

| Compound | inhibition at 10 µg/mL [1] [%] | inhibition at 10 µg/mL [2] [%] | inhibition at 20 µg/mL ([1]; 20 μg/ml) [%] | inhibition at 20 µg/mL ([2]; 20 μg/ml) [%] |
| --- | --- | --- | --- | --- |
| CCCc1nn(C(C)=O)c2c(C#N)c(=O)n3ccccc3c12 [S-26, 3-Acetyl-4-cyano-1-propyl-5H-pyrazolo[4,3-a]quinolizin-5-one] | 18 | 55 |  |  |
| CCc1nn(C(C)=O)c2c(C#N)c(=O)n3ccccc3c12 [S-31] |  |  | 33 | 75 |
| CC(=O)n1nc(CC(C)C)c2c1c(C#N)c(=O)n1ccccc21 [S-38] | 4 | 40 |  |  |
